Here are results for 9 molecules from patent US12716890B2, “Macro tissue explant, methods and uses therefor” (Massachusetts Institute of Technology, priority 2017, dated 2026).

Data set [1] deals with gastrointestinal tissue explants derived from either the esophagus, stomach or small intestine.
Description: To determine responsiveness of the intestinal tissue explant to toxins, a resazurin-based viability analysis was conducted in various segments of the gastrointestinal tract after exposure to chemicals for a 24 hour time period. Resazurin is an oxidation-reduction indicator and established viability assay for mammalian cells. […] Tissue was incubated in multiwell plates containing media in the receiver chamber and various chemicals at different concentrations in PBS in the donor chamber. After 24 hours viability was measured by resazurin-based viability analysis.
Data set [2] deals with intestinal tissue explant. Format: in vitro ADME, pigs. As for the experimental part: To assemble the intestinal tissue explant system, freshly isolated intestinal tissue from the jejunum was prepared according to the described tissue dissection procedure and mounted on the manufactured interface design with a generic 96 well plate as a receiver plate (Corning® 96 well plates, clear bottom, Corning) or a UV transparent plate (Corning® 96-well UV Plates, Corning). The jejunum was identified as the region of the small intestine approximately 50 cm after the pylorus. The difference between the jejunum and ileum was determined based on anatomical location, the structural differences of the tissue, differences in blood supply, and fat deposition as well as the presence of lymphoid tissue. For the system in 384-well format, a 384 microplate with glass bottom (Greiner Sensoplate™ glass bottom multiwall plates, Sigma) were used. The tissue was then cultured in this system according to the described cultivation protocol for specific ex vivo cultivation time periods. Intestinal perfusion experiments using the system were conducted only once after 24 hours of ex vivo cultivation unless otherwise noted.
For perfusion experiments the following set up was used: Formulation samples were prepared using a liquid handling station (Evo 150 liquid handling deck, Tecan), an automated dispenser (EL406 Combination Washer Dispenser, BioTek Instruments) was used to fill receiver 96 well plates, a microplate reader (Infinite® M1000 PRO, Tecan) was then used for spectrophotometric analysis. Specifically, formulation samples were prepared following a protocol to mix the pre-pared excipient plate 10 times, pipette the appropriate amount of excipient and dispense into a 96-well plate with the appropriate amount of compound already it in. The excipient/compound formulations were then mixed 60 times and then the appropriate amount was pipetted and dispensed onto the tissue explant. All experiments, including sample incubation, were performed at room temperature. […]

Data set [3] in a line: Pharmacokinetic validation in vivo, formulation delivered to duodenum, oxytocin serum ELISA. The following applies: female, Yorkshire, pig, po, pigs, formulation delivered directly to the duodenum, read-out: bioavailability of oxytocin (absolute / average oral). As for the experimental part: All animal procedures were conducted in accordance with protocols approved by the Massachusetts Institute of Technology Committee on Animal Care. For tissue experiments, fresh tissue was obtained from local abattoirs within 20 minutes of euthanization.
Pharmacokinetic validation was performed in vivo. Female Yorkshire pigs between 45 and 50 kg in weight were used. Before every experiment, the animals were fasted overnight and on the day of the procedure, the morning feed was held. The animals were sedated with an intramuscular injection of Telazol (tileramine/zolazepam) 5 mg/kg, xylazine 2 mg/kg and atropine 0.04 mg/kg. The duodenum was accessed endoscopically and the formulation directly delivered to the duodenum. Serial blood sampling from the peripheral veins was performed for quantification of oxytocin. For oxytocin serum quantification, an Oxytocin ELISA kit (Cat. no. ab133050, Abcam) was used according to the manufacturer's protocol. […] To investigate the mechanism of absorption enhancement and to analyze potential local effects of the formulation on the small intestine histologically, a surgical procedure coupled with custom-made devices was developed, that enabled controlled exposure of the formulation on a defined area of the intestinal tissue. E-cadherin stained sections of biopsy samples were used to analyze the disruption of cell-cell adhesions.
A general note: ELISA stands for enzyme-linked immunosorbent assay.

Data set [4] relates to GLP-1 (7-36). Nature of the data set: GLP-1 stimulation of intestinal tissue explant, ELISA of GLP-1 (7-36). Format: cell-based, pigs. The following applies: varying doses for 24 hours. As for the experimental part: As determined in Example 1, the intestinal tissue explant comprises endocrine cells, determined by the expression of […] and Glucagon-like peptide-1 (GLP-1). Therefore, the ability of the intestinal tissue explant to respond to known GLP-1 stimulants was investigated. Specifically, acetylcholine, LiCl, and glucose were added to the intestinal tissue explant at varying doses for 24 hours, then cells within the apical side of the intestinal epithelium were isolated. The concentration of active cleaved peptide of GLP-1 (GLP-1 (7-36)) of these cell lysates was determined by ELISA analysis. […] The stimulation of GLP-1 secretion by acetylcholine, LiCl and glucose, which act through different pathways, indicated these pathways were intact in the intestinal tissue explant. The Acetylcholine and LiCl act as non-nutrient stimulators of GLP-1 that are reported to simulate GLP-1 activity via neuronal regulation. Glucose triggers GLP-1 activity via nutrient-based pathways.

Data set [5] concerns the target T1, MDR-1 (Sus scrofa, UniProt K7GMM7).
T1 construct: from tissue; host or cells: pig small intestine explant, cultured ex vivo
In words: Perfusion of substrate through siRNA-transfected intestinal tissue explant. Format: in vitro ADME, pigs.
Description: Specifically, siRNA was delivered to tissue explants using ultrasound by applying 5 second intervals for 1 minute for 40 kHz generated using a separate ultrasound generator (Sonics and Materials, Inc.) and a custom made 96 tip probe. The following siRNAs at concentrations of 1 μm in deionized water were used: Silencer® Select Pre-Designed siRNA (siRNA ID: s3846, Gene Symbol: CYP3A4), Silencer® Select Pre-Designed siRNA (siRNA ID: s10419, Gene Symbol: ABCB1), Silencer® Select Negative Control No. 1 siRNA.

Where two headings read alike, the source gives them in different places. Numbered stars: 1 amine (or outer) side, 2 acyl side, 3 side chain; on linkers, the order of the positions; unused ones are H or OH. Bridge positions count the residues as written; N and C are the ends. Peptide text beside a SMILES is read from it. X1 = O=C(CCC[*:2])[*:1]

T1 sequence (K7GMM7 1-1248): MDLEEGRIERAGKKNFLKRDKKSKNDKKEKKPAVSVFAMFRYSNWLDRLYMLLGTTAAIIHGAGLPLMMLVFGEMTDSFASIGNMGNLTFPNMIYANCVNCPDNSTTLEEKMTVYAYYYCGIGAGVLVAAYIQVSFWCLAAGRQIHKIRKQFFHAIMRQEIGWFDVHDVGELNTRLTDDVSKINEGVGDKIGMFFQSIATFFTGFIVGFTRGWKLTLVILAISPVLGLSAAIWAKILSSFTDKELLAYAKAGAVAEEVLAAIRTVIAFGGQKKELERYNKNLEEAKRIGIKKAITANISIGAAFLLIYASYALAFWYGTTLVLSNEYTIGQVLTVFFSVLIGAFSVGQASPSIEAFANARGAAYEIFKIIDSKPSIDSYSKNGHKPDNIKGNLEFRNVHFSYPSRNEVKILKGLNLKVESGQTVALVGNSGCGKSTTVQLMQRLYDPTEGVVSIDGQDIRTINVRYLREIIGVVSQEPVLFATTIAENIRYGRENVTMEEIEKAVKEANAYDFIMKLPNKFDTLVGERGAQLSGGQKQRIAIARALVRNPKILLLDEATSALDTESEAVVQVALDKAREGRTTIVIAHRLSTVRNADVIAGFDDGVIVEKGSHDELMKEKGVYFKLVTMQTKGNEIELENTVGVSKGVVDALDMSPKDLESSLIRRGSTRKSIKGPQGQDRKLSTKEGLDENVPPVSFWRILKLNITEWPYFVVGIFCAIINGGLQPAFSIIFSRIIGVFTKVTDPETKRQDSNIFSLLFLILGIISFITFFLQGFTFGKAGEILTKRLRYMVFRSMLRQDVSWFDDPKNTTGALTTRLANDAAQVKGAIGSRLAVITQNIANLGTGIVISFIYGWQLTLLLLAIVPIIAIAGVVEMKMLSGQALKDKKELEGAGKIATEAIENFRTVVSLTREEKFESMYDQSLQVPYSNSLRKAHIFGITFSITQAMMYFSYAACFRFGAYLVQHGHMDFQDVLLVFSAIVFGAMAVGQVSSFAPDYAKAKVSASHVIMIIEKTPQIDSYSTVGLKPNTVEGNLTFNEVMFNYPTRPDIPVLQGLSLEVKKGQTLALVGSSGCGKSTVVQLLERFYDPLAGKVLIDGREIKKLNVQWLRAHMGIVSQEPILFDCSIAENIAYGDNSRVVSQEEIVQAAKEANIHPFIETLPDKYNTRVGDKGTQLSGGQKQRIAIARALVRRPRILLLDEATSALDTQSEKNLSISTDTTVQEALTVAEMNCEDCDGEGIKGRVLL

Consider `C=O` [formalin], for which, in data set [1] (24 hours exposure, different concentrations in PBS, esophagus, stomach or small intestine explants), the tissue viability result is given as “dose-dependent chemically induced decrease in tissue viability”.
For `CCO` [ethanol], in data set [1], the tissue viability result is “dose-dependent chemically induced decrease in tissue viability”.
With “Alexa488-insulin: human insulin (recombinant) labeled with Alexa Fluor 488 NHS Ester”, the “intestinal absorption/perfusion of model drug formulated with polyethyleneimine (800 Da, end-capped)” value in data set [2] was “increase the intestinal absorption to various degrees”.
Consider `CO` [methanol], for which the tissue viability entry in data set [1] was “dose-dependent chemically induced decrease in tissue viability”.
On to `CC[C@H](C)[C@@H]1NC(=O)[C@H](Cc2ccc(O)cc2)NC(=O)[C@@H](N)CSSC[C@@H](C(=O)N2CCC[C@H]2C(=O)N[C@@H](CC(C)C)C(=O)NCC(N)=O)NC(=O)[C@H](CC(N)=O)NC(=O)[C@H](CCC(N)=O)NC1=O` [oxytocin], for which the bioavailability in data set [3] turned out to be 0.64%.
In the case of “Polyethyleneimine [Polyethyleneimine (800 Da, end-capped)]”, the “intestinal perfusion of oxytocin formulated with excipient” value in data set [2] is “increased the intestinal perfusion of oxytocin several fold”.
Turning to `[Cl-].[Li+]` [LiCl], in data set [4], the “concentration of GLP-1 (7-36) in cell lysates” value is “increased concentration so of GLP-1 (7-36) in a dose-dependent manner”.
As for `CC[C@H](C)[C@@H]1NC(=O)[C@H](Cc2ccc(OC)cc2)NC(=O)CCCSC[C@@H](C(=O)N2CCC[C@H]2C(=O)N[C@@H](CC(C)C)C(=O)NCC(N)=O)NC(=O)[C@H](CC(N)=O)NC(=O)[C@H](CCC(N)=O)NC1=O` [carbetocin] (Y(Me)IQNCPLG-NH2; linker N-5 via X1), the “intestinal absorption/perfusion of model drug formulated with polyethyleneimine (800 Da, end-capped)” value in data set [2] is reported as “limited increase in intestinal perfusion”.
On to `CNC(=C[N+](=O)[O-])NCCSCc1ccc(CN(C)C)o1` [ranitidine], for which, in data set [5], the “perfusion after knock-down of MDR-1” value is “significant change of perfusion”.
